Laboratory results as given in patent US9790178B2, “Pyrrolidinyl urea, thiourea, guanidine and cyanoguanidine compounds as TrkA kinase inhibitors” (Array BioPharma Inc., priority 2012, dated 2017).

Tests used:
Assay in all cases: KinaseProfiler off-target kinase profiling
Type in all cases: biochemical
AKT2 = molecular target: T1, AKT2 (Homo sapiens, UniProt P31751); settings: 10 μM, ATP near Km
T1 construct: purchased Millipore, Inc. (KinaseProfiler service)
Experimental: (§1) A representative compound of the invention (Example 20) was tested for off-target kinase activity at a concentration of 10 μM by Millipore, Inc. in their KinaseProfiler™ service against all the kinases available in their full kinase panel. The compound was run in duplicate at a concentration of ATP near the Km for each individual kinase according to Millipore's specifications. The results are shown in Table B. Data are reported as percent of control (POC) and are the average of the two replicates.

AKT3 = molecular target: T2, AKT3 (Homo sapiens, UniProt Q9Y243); settings: 10 μM, ATP near Km
T2 construct: purchased Millipore, Inc. (KinaseProfiler service)
Experimental: as §1

AURKA = molecular target: T3, AURKA (Homo sapiens, UniProt O14965); settings: 10 μM, ATP near Km
T3 construct: purchased Millipore, Inc. (KinaseProfiler service)
Experimental: as §1

BTK = molecular target: T4, BTK (Homo sapiens, UniProt Q06187); settings: 10 μM, ATP near Km
T4 construct: purchased Millipore, Inc. (KinaseProfiler service)
Experimental: as §1

Bmx = molecular target: T5, Bmx (Homo sapiens, UniProt P51813); settings: 10 μM, ATP near Km
T5 construct: purchased Millipore, Inc. (KinaseProfiler service)
Experimental: as §1

CAMK1 = molecular target: T6, CAMK1 (Homo sapiens, UniProt Q14012); settings: 10 μM, ATP near Km
T6 construct: purchased Millipore, Inc. (KinaseProfiler service)
Experimental: as §1

CAMK2d = molecular target: T7, CAMK2d (Homo sapiens, UniProt Q13557); settings: 10 μM, ATP near Km
T7 construct: purchased Millipore, Inc. (KinaseProfiler service)
Experimental: as §1

CDK5/p25 = molecular target: T8, CDK5/p25 (Homo sapiens, UniProt Q00535); settings: 10 μM, ATP near Km
T8 construct: purchased Millipore, Inc. (KinaseProfiler service)
Experimental: as §1

CHK1 = molecular target: T9, CHK1 (Homo sapiens, UniProt O14757); settings: 10 μM, ATP near Km
T9 construct: purchased Millipore, Inc. (KinaseProfiler service)
Experimental: as §1

CK1gamma2 = molecular target: T10, CK1gamma2 (Homo sapiens, UniProt P78368); settings: 10 μM, ATP near Km
T10 construct: purchased Millipore, Inc. (KinaseProfiler service)
Experimental: as §1

DAPK2 = molecular target: T11, DAPK2 (Homo sapiens, UniProt Q9UIK4); settings: 10 μM, ATP near Km
T11 construct: purchased Millipore, Inc. (KinaseProfiler service)
Experimental: as §1

DAPK3 = molecular target: T12, DAPK3 (Homo sapiens, UniProt O43293); settings: 10 μM, ATP near Km
T12 construct: purchased Millipore, Inc. (KinaseProfiler service)
Experimental: as §1

ERK1 = molecular target: T13, ERK1 (Homo sapiens, UniProt P27361); settings: 10 μM, ATP near Km
T13 construct: purchased Millipore, Inc. (KinaseProfiler service)
Experimental: as §1

EphA3 = molecular target: T14, EphA3 (Homo sapiens, UniProt P29320); settings: 10 μM, ATP near Km
T14 construct: purchased Millipore, Inc. (KinaseProfiler service)
Experimental: as §1

EphA7 = molecular target: T15, EphA7 (Homo sapiens, UniProt Q15375); settings: 10 μM, ATP near Km
T15 construct: purchased Millipore, Inc. (KinaseProfiler service)
Experimental: as §1

EphB2 = molecular target: T16, EphB2 (Homo sapiens, UniProt P29323); settings: 10 μM, ATP near Km
T16 construct: purchased Millipore, Inc. (KinaseProfiler service)
Experimental: as §1

FGFR2 = molecular target: T17, FGFR2 (Homo sapiens, UniProt P21802); settings: 10 μM, ATP near Km
T17 construct: purchased Millipore, Inc. (KinaseProfiler service)
Experimental: as §1

HIPK1 = molecular target: T18, HIPK1 (Homo sapiens, UniProt Q86Z02); settings: 10 μM, ATP near Km
T18 construct: purchased Millipore, Inc. (KinaseProfiler service)
Experimental: as §1

HIPK3 = molecular target: T19, HIPK3 (Homo sapiens, UniProt Q9H422); settings: 10 μM, ATP near Km
T19 construct: purchased Millipore, Inc. (KinaseProfiler service)
Experimental: as §1

IGF-1R = molecular target: T20, IGF-1R (Homo sapiens, UniProt P08069); settings: 10 μM, ATP near Km
T20 construct: purchased Millipore, Inc. (KinaseProfiler service)
Experimental: as §1

MAPKAP-K5 = molecular target: T21, MAPKAP-K5 (Homo sapiens, UniProt Q8IW41); settings: 10 μM, ATP near Km
T21 construct: purchased Millipore, Inc. (KinaseProfiler service)
Experimental: as §1

MARK1 = molecular target: T22, MARK1 (Homo sapiens, UniProt Q9P0L2); settings: 10 μM, ATP near Km
T22 construct: purchased Millipore, Inc. (KinaseProfiler service)
Experimental: as §1

MELK = molecular target: T23, MELK (Homo sapiens, UniProt Q14680); settings: 10 μM, ATP near Km
T23 construct: purchased Millipore, Inc. (KinaseProfiler service)
Experimental: as §1

MKK4_m = molecular target: T24, MKK4_m (Mus musculus, UniProt P47809); settings: 10 μM, ATP near Km
T24 construct: purchased Millipore, Inc. (KinaseProfiler service)
Experimental: as §1

MKK7beta = molecular target: T25, MKK7beta (Homo sapiens, UniProt O14733); settings: 10 μM, ATP near Km, POC verified as a false positive (footnote)
T25 construct: purchased Millipore, Inc. (KinaseProfiler service)
Experimental: as §1

MST2 = molecular target: T26, MST2 (Homo sapiens, UniProt Q13188); settings: 10 μM, ATP near Km
T26 construct: purchased Millipore, Inc. (KinaseProfiler service)
Experimental: as §1

Mer = molecular target: T27, Mer (Homo sapiens, UniProt Q12866); settings: 10 μM, ATP near Km
T27 construct: purchased Millipore, Inc. (KinaseProfiler service)
Experimental: as §1

NEK7 = molecular target: T28, NEK7 (Homo sapiens, UniProt Q8TDX7); settings: 10 μM, ATP near Km
T28 construct: purchased Millipore, Inc. (KinaseProfiler service)
Experimental: as §1

PAK2 = molecular target: T29, PAK2 (Homo sapiens, UniProt Q13177); settings: 10 μM, ATP near Km
T29 construct: purchased Millipore, Inc. (KinaseProfiler service)
Experimental: as §1

PDGFRbeta = molecular target: T30, PDGFRbeta (Homo sapiens, UniProt P09619); settings: 10 μM, ATP near Km
T30 construct: purchased Millipore, Inc. (KinaseProfiler service)
Experimental: as §1

PKCtheta = molecular target: T31, PKCtheta (Homo sapiens, UniProt Q04759); settings: 10 μM, ATP near Km
T31 construct: purchased Millipore (KinaseProfiler service)
Experimental: as §1

PRKG1alpha = molecular target: T32, PRKG1alpha (Homo sapiens, UniProt Q13976); settings: 10 μM, ATP near Km
T32 construct: purchased Millipore (KinaseProfiler service)
Experimental: as §1

PTK6 = molecular target: T33, PTK6 (Homo sapiens, UniProt Q13882); settings: 10 μM, ATP near Km
T33 construct: purchased Millipore (KinaseProfiler service)
Experimental: as §1

Pyk2 = molecular target: T34, Pyk2 (Homo sapiens, UniProt Q14289); settings: 10 μM, ATP near Km
T34 construct: purchased Millipore (KinaseProfiler service)
Experimental: as §1

Ret = molecular target: T35, Ret (Homo sapiens, UniProt P07949); settings: 10 μM, ATP near Km
T35 construct: purchased Millipore (KinaseProfiler service)
Experimental: as §1

Ron = molecular target: T36, Ron (Homo sapiens, UniProt Q04912); settings: 10 μM, ATP near Km
T36 construct: purchased Millipore (KinaseProfiler service)
Experimental: as §1

Syk = molecular target: T37, Syk (Homo sapiens, UniProt P43405); settings: 10 μM, ATP near Km
T37 construct: purchased Millipore, Inc. (KinaseProfiler service)
Experimental: as §1

ULK2 = molecular target: T38, ULK2 (Homo sapiens, UniProt Q8IYT8); settings: 10 μM, ATP near Km
T38 construct: purchased Millipore, Inc. (KinaseProfiler service)
Experimental: as §1

ULK3 = molecular target: T39, ULK3 (Homo sapiens, UniProt Q6PHR2); settings: 10 μM, ATP near Km
T39 construct: purchased Millipore, Inc. (KinaseProfiler service)
Experimental: as §1

ZAP-70 = molecular target: T40, ZAP-70 (Homo sapiens, UniProt P43403); settings: 10 μM, ATP near Km
T40 construct: purchased Millipore, Inc. (KinaseProfiler service)
Experimental: as §1

p38alpha = molecular target: T41, p38alpha (Homo sapiens, UniProt Q16539); settings: 10 μM, ATP near Km
T41 construct: purchased Millipore, Inc. (KinaseProfiler service)
Experimental: as §1

T28 sequence (Q8TDX7 whole entry): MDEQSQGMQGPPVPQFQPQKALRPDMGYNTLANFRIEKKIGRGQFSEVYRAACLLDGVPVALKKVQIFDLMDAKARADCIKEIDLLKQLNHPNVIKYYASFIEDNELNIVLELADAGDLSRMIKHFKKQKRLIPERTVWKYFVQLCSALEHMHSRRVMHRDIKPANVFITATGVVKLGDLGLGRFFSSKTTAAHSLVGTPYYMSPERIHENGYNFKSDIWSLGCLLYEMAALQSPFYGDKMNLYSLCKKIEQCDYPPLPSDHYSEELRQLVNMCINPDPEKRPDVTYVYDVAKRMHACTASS
T9 sequence (O14757 whole entry): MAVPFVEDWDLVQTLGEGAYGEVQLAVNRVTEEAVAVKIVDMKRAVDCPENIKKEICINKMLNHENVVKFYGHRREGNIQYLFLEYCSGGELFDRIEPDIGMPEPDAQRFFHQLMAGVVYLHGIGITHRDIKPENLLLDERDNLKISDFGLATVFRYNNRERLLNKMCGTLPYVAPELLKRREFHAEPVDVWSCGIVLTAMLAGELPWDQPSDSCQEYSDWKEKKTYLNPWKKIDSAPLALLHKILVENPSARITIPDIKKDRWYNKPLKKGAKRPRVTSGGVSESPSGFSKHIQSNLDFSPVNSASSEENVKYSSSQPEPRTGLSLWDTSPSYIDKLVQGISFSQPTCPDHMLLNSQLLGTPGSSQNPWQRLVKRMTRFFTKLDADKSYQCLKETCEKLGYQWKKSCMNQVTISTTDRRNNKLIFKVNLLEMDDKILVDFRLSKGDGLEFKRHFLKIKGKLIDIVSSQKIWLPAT
T33 sequence (Q13882 whole entry): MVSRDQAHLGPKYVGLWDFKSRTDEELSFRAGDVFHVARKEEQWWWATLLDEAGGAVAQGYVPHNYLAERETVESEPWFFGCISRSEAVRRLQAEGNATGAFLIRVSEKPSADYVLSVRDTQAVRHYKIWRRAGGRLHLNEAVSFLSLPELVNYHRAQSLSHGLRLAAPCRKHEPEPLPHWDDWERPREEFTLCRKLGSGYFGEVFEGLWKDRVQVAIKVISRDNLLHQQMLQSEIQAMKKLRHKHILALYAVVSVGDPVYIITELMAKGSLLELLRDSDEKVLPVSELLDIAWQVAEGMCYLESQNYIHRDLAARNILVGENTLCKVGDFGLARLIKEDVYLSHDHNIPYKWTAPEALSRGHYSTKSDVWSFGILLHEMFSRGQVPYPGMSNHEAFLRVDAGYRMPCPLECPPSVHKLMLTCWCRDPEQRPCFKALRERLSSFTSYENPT
T20 sequence (P08069 31-1367): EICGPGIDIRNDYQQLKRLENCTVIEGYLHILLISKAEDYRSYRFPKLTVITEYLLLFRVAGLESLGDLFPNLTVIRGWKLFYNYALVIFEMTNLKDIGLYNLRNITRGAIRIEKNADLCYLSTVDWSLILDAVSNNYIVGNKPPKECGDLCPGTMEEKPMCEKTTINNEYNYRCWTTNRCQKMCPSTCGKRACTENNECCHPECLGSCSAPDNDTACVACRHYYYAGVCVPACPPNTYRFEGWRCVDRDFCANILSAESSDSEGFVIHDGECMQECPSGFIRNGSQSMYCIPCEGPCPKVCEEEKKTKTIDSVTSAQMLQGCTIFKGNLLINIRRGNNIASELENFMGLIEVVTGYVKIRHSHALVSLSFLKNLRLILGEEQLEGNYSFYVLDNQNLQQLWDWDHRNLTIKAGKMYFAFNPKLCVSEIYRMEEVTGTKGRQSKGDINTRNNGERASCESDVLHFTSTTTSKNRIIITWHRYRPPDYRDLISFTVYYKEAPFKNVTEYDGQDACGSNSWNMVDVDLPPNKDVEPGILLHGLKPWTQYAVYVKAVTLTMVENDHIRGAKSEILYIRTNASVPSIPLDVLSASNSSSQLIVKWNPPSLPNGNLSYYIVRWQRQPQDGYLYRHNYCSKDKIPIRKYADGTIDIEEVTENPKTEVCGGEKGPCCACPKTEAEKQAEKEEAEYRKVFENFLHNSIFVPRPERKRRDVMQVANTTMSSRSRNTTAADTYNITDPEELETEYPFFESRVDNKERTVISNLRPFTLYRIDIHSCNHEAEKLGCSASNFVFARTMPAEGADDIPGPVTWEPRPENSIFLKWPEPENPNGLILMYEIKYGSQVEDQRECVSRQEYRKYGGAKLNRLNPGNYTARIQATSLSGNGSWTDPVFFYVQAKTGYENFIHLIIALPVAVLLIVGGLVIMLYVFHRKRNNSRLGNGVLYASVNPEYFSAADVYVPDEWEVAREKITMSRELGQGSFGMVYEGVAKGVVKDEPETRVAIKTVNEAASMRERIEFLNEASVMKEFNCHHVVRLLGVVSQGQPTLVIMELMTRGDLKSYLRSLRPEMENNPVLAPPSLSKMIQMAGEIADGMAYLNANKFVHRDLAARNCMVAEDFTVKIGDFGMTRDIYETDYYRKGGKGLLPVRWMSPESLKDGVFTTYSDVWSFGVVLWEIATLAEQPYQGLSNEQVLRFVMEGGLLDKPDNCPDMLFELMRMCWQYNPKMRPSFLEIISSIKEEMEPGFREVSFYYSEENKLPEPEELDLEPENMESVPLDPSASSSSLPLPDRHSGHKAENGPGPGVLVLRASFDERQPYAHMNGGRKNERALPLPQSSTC
T21 sequence (Q8IW41 whole entry): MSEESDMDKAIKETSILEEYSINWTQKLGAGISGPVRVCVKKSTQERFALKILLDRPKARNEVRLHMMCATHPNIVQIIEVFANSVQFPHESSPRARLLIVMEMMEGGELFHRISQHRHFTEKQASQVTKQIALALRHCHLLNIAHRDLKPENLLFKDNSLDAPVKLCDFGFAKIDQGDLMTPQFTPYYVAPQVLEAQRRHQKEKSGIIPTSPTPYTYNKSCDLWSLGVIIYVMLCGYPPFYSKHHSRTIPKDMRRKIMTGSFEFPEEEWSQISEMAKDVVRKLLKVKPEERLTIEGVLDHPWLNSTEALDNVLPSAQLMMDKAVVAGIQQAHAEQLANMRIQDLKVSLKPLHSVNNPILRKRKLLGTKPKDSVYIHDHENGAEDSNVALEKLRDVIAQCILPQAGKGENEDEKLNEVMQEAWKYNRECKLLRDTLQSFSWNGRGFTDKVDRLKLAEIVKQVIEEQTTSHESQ
T13 sequence (P27361 whole entry): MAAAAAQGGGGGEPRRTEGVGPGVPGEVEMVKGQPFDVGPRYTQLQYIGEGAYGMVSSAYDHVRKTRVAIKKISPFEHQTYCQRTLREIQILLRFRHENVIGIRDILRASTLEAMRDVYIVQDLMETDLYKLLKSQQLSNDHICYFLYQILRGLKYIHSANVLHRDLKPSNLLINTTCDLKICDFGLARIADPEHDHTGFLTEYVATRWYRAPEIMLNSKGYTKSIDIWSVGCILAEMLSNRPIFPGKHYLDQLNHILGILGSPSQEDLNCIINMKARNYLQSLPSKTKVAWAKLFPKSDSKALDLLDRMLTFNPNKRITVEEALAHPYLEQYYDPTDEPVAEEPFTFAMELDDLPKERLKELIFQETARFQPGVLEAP
T38 sequence (Q8IYT8 whole entry): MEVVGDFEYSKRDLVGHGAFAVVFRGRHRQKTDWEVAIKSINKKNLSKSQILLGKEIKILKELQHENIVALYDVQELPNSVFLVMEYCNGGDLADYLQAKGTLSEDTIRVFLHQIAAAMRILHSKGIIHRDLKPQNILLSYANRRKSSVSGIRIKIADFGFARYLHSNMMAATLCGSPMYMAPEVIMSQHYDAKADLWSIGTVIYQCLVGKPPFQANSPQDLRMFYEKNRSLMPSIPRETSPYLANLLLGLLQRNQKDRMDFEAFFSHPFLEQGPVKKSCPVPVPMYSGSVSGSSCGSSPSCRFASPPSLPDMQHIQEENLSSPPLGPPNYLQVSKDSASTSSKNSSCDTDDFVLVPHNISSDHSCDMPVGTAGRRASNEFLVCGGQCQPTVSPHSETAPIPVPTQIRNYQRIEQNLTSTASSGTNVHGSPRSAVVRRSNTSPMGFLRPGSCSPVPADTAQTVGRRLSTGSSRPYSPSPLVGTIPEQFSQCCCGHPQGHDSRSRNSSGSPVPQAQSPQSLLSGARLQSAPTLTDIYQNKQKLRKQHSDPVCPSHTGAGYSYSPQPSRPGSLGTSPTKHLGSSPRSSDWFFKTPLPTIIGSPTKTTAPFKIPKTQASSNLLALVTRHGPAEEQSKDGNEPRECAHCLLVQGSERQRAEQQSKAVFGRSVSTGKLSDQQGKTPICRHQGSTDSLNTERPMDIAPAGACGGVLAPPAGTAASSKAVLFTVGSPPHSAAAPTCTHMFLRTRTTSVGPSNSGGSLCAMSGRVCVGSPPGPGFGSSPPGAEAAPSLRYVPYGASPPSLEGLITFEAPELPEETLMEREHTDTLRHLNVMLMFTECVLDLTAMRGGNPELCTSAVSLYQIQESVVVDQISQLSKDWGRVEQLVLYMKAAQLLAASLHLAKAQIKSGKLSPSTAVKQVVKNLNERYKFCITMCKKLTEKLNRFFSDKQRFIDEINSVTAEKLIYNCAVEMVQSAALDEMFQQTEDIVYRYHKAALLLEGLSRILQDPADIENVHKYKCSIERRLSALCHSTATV
T26 sequence (Q13188 whole entry): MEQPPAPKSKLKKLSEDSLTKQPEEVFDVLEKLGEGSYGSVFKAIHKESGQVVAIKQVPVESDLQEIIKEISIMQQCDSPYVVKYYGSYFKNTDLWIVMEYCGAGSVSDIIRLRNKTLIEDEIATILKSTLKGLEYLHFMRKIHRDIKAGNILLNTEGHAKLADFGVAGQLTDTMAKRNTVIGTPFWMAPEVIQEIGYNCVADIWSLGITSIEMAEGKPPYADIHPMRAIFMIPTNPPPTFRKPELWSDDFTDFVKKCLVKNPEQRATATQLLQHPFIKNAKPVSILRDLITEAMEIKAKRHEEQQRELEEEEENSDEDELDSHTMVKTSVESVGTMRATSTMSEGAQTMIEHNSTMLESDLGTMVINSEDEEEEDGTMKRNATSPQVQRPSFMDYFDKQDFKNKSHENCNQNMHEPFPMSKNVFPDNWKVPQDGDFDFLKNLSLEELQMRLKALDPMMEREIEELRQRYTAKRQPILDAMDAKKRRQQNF

- Avg. POC (AKT2): 131 POC
- Avg. POC (AKT3): 104 POC
- Avg. POC (AURKA): 118 POC
- Avg. POC (BTK): 112.5 POC
- Avg. POC (Bmx): 103.5 POC
- Avg. POC (CAMK1): 105.5 POC
- Avg. POC (CAMK2d): 102 POC
- Avg. POC (CDK5/p25): 111 POC
- Avg. POC (CHK1): 103.5 POC
- Avg. POC (CK1gamma2): 110 POC
- Avg. POC (DAPK2): 104 POC
- Avg. POC (DAPK3): 103 POC
- Avg. POC (ERK1): 115 POC
- Avg. POC (EphA3): 98 POC
- Avg. POC (EphA7): 104.5 POC
- Avg. POC (EphB2): 104 POC
- Avg. POC (FGFR2): 106 POC
- Avg. POC (HIPK1): 111 POC
- Avg. POC (HIPK3): 105.5 POC
- Avg. POC (IGF-1R): 73 POC
- Avg. POC (MAPKAP-K5): 88.5 POC
- Avg. POC (MARK1): 103.5 POC
- Avg. POC (MELK): 97.5 POC
- Avg. POC (MKK4_m): 113 POC
- Avg. POC (MKK7beta): −2 POC
- Avg. POC (MST2): 107.5 POC
- Avg. POC (Mer): 116.5 POC
- Avg. POC (NEK7): 105.5 POC
- Avg. POC (PAK2): 100.5 POC
- Avg. POC (PDGFRbeta): 114 POC
- Avg. POC (PKCtheta): 111.5 POC
- Avg. POC (PRKG1alpha): 111.5 POC
- Avg. POC (PTK6): 114 POC
- Avg. POC (Pyk2): 98.5 POC
- Avg. POC (Ret): 97.5 POC
- Avg. POC (Ron): 100 POC
- Avg. POC (Syk): 99.5 POC
- Avg. POC (ULK2): 109 POC
- Avg. POC (ULK3): 108 POC
- Avg. POC (ZAP-70): 102.5 POC
- Avg. POC (p38alpha): 97.5 POC
Compound: COCCN1C[C@@H](NC(=O)Nc2c(-c3ccccc3)nc3c(C)nccn23)[C@H](c2ccc(F)c(F)c2)C1 [Example 20, 1-((3S,4R)-4-(3,4-difluorophenyl)-1-(2-methoxyethyl)pyrrolidin-3-yl)-3-(8-methyl-2-phenylimidazo[1,2-a]pyrazin-3-yl)urea]
